US5492929A, “Condensed heterocyclic compounds useful for inhibiting acyl-CoA” (Takeda Chemical Industries, Ltd., priority 1992, dated 1996)

Experiments:
[1] = target: T1, Acyl-CoA:cholesterol acyltransferase (ACAT) (Rattus norvegicus, UniProt Q7TQM4); test: ACAT inhibitory action: labeled cholesterol ester formation from [1-14C]oleoyl-CoA and endogenous cholesterol, small-intestinal mucosal microsomal enzyme; format: biochemical, rat (Sprague-Dawley); settings: 10^-6 M; read-out: ACAT inhibitory rate (%)
T1 construct: prepared from the microsomal fraction of mucosal cells from the small intestines of rats; from tissue; host or cells: microsomal fraction of small-intestinal mucosal cells, fasted 6-week-old male Sprague-Dawley rats
T1 sequence (Q7TQM4 1-524): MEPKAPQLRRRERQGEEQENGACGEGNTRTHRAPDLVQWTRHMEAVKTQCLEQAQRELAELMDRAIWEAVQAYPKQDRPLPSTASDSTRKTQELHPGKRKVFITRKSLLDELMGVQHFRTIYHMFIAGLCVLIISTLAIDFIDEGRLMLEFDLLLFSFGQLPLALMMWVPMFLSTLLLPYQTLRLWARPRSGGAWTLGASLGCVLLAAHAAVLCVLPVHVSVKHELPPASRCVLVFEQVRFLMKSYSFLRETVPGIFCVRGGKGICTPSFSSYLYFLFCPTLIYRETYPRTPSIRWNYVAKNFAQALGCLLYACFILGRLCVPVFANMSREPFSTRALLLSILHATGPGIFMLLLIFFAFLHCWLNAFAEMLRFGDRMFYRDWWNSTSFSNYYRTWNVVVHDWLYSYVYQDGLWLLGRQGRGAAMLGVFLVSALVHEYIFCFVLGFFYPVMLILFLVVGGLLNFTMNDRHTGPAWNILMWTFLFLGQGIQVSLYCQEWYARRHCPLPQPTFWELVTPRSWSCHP
Method: In accordance with the method disclosed by Heider et al. on Journal of Lipid Research, 24, p.1127 (1983), an enzyme sample ACAT was prepared from the microsomal fraction of mucosal cells from the small intestines of rats (6-week old male Sprague-Dawleys) fasted for 20 hours.
The ACAT activity was determined by, in accordance with the method disclosed by Helgerud et al. on Journal of Lipid Research 22, p.271 (1981), measuring the amount of labeled cholesterol ester from [1-^14 C]oleoyl-CoA and endogenous cholesterol.
(1) In Table 2, the labeled cholesterol ester formation inhibitory rate (%) determined when supplemented with 10^-6 M of a test compound (a representative one of the compounds obtained in the following Examples 1 to 24) is shown as the index of ACAT inhibitory activity.

[2] = target: T1, Acyl-CoA:cholesterol acyltransferase (ACAT); test: as above; format: biochemical, rat (Sprague-Dawley); settings: 10^-8 M; read-out: ACAT inhibitory rate (%) (in parentheses)
[3] = system: hypercholesterolemic ICR mice; test: Hypocholesterolemic (cholesterol-lowering) activity in mice fed a high cholesterol-cholic acid diet; format: in vivo, mouse (ICR); settings: serum, vs control
Method: Groups of 6 ICR mice (2 subgroups of 3 mice) were made hypercholesterolemic by being fed a high cholesterol-cholic acid diet for 7 days and administered with test compounds orally on the last two days. One-half of the total dose was given on day 6 followed by the other half on day 7. After fasting overnight (16 hours after the last dose), the animals were sacrificed and sera were collected together for the each subgroup for measuring the levels of cholesterol and heparin precipitating lipoproteins (HPL). Both cholesterol and HPL levels were measured with autoanalyzer by the enzymatic CHOD-PAP method for the former and by the turbidimetric method of Shurr et. al. [in C. E. Dau ed. Atherosclerosis Drug Discovery, Plenum Publishing, New York, pp.215-229 & 231-249, 1976.] for the latter.

[4] = 1 mg/kg po (total dose, halves on day 6 and 7)
[5] = 10 mg/kg po (total dose, halves on day 6 and 7)
[6] = 30 mg/kg po (total dose, halves on day 6 and 7)

Row | inhibition at 1 µM [1] [%] | inhibition at 0.01 µM [2] [%] | SMILES | also measured
1 | 99.4 | 39.9 | CCOc1cccc(OCC)c1NC(=O)Nc1oc2ccc(Cl)cc2c1-c1ccccc1C [Example 20, [5-Chloro-3-(2-methylphenyl)-2-benzofuryl]-N'-(2,6-diethoxyphenyl)urea] | –
2 | 90.1 | – | Cc1ccccc1-c1c(NC(=O)Nc2c(F)cc(F)cc2F)oc2ccc(Cl)cc12 [Example 18, N-[5-Chloro-3-(2-methylphenyl)-2-benzofuryl]-N'-(2,4,6-trifluorophenyl)urea] | –
3 | 99 | 28.8 | COc1cccc(OC)c1NC(=O)Nc1oc2ccc(Cl)cc2c1-c1ccccc1C [Example 19, N-[5-Chloro-3-(2-methylphenyl)-2-benzofuryl]-N'-(2,6-dimethoxyphenyl)urea] | –
4 | 98.8 | – | COc1cccc(OC)c1NC(=O)Cc1oc2ccc(Cl)cc2c1-c1ccccc1C [Example 2, 5-Chloro-N-(2,6-dimethoxyphenyl)-3-(2-methylphenyl)-2-benzofuranacetamide] | –
5 | 90.8 | – | Cc1cc(C)c(NC(=O)Cc2oc3ccc(Cl)cc3c2-c2ccccc2C)c(C)c1 [Example 3, 5-Chloro-3-(2-methylphenyl)-N-(2,4,6-trimethylphenyl)-2-benzofuranacetamide] | –
6 | 99 | – | CC(C)c1cccc(C(C)C)c1NC(=O)Cc1oc2ccc(Cl)cc2c1-c1ccccc1 [Example 4, N-[2,6-Bis(1-methylethyl)phenyl]-5-chloro-3-phenyl-2-benzofuranacetamide] | –
7 | 92.3 | – | Cc1ccccc1-c1c(CC(=O)Nc2c(C(C)C)cccc2C(C)C)n(C)c2ccc(Cl)cc12 [Example 7, N-[2,6-Bis(1-methylethyl)phenyl]-5-chloro-1-methyl-3-(2-methylphenyl)-2-indoleacetamide] | –
8 | 93.2 | – | COc1cccc(OC)c1NC(=O)Cc1oc2ccc(Cl)cc2c1-c1ccccc1 [Example 5, 5-Chloro-N-(2,6-dimethoxyphenyl)-3-phenyl-2-benzofuran acetamide] | –
9 | 91.2 | – | COc1cccc(OC)c1NC(=O)Cc1c(-c2ccccc2C)c2cc(Cl)ccc2n1C [Example 8, 5-Chloro-N-(2,6-dimethoxyphenyl)-1-methyl-3-(2-methylphenyl)-2-indoleacetamide] | –
10 | 98.1 | 50.3 | CCOc1cccc(OCC)c1NC(=O)Cc1oc2ccc(Cl)cc2c1-c1ccccc1C [Example 16, 5-Chloro-N-(2,6-diethoxyphenyl)-3-(2-methylphenyl)-2-benzofuranacetamide] | –
11 | 99.1 | 92.2 | Cc1ccccc1-c1c(NC(=O)Nc2c(C(C)C)cccc2C(C)C)oc2ccc(Cl)cc12 [Example 11, N-[2,6-Bis(1-methylethyl)phenyl]-N'-[5-chloro-3-(2-methylphenyl)-2-benzofuryl]urea] | Reduction % HPL (heparin precipitating lipoproteins) [3, 4]: 27%; Reduction % cholesterol [3, 4]: 28%; Reduction % HPL (heparin precipitating lipoproteins) [3, 5]: 38%; Reduction % cholesterol [3, 5]: 31%
12 | 92.9 | – | Cc1ccccc1-c1c(CC(=O)Nc2c(F)cc(F)cc2F)oc2ccc(Cl)cc12 [Example 17, 5-Chloro-3-(2-methylphenyl)-N-(2,4,6-trifluorophenyl)-2-benzofuranacetamide] | –
13 | 99.2 | 93.7 | Cc1ccccc1-c1c(CC(=O)Nc2c(C(C)C)cccc2C(C)C)oc2ccc(Cl)cc12 [Example 1, N-[2,6-Bis(1-methylethyl)phenyl]-5-chloro-3-(2-methylphenyl)-2-benzofuranacetamide] | Reduction % HPL (heparin precipitating lipoproteins) [3, 6]: 27%; Reduction % cholesterol [3, 6]: 32%
